We go through eight compounds from paper PMC12503906, “Novel Pyrazolo [1,5‐a]−1,3,5‐Triazine Derivatives as CDK7 Inhibitors: Synthesis and Biological Insights in Pancreatic Ductal Adenocarcinoma Models” (Chemmedchem, 2025).

One assay deals with PANC‐1. As to the kind of experiment: SRB chemosensitivity assay, PANC‐1 cells. It is filed as cell-based. Particulars: Homo sapiens, read-out: IC50 PANC‐1. Here is the method: (§1) Three lines of immortalized PDAC cells were selected as representative phenotypes: mesenchymal (PATU‐T), quasimesenchymal (PANC‐1), and an epithelial clone of SUIT 2 cells (SUIT 2.28). Cells were cultured in noncoated T‐75 and T‐25 flasks under adherent conditions, using 1× DMEM (Gibco, 41,966,029) for PATU‐T and RPMI (Gibco, 21,875,034) for SUIT 2.28 and PANC‐1, both supplemented with 10% NBCS and 1% P/S. Additional employed models were the PDAC3 cells, a primary cell culture, the PSCs, which were immortalized healthy pancreatic cells, and the PATU‐T‐GR, which was a gemcitabine resistant model of PATU‐T. PDAC3 and PSCs were cultivated using complete RPMI medium, while PATU‐T‐GR required complete DMEM medium. For seeding, cells were detached with Trypsin‐EDTA (0.05%) (GibcoTM, 25,300–096) and were consequently counted using the Automated Cell Counter (Luna‐II, Westburg). Cells were then plated on 96‐ or 6‐well plates depending on the planned experiment.
(§2) The Sulforhodamine B (SRB) chemosensitivity assay was used to measure cytotoxicity and cell proliferation post drug treatment. At day 0, 3–6 × 10^3 cells were seeded in a 96‐well plate, depending on the cell line. At day 1, cells were attached and ready to be treated. For the calculation of the IC50, drug dilutions for the compounds 1b, 1c, 1d, 1e, 1g, 1hr, 1i, 1j, and LDC4297 (MedChemExpress, HY‐12,653) were prepared in dilution trays and eight different concentrations were included. These were added in triplicates to the cells, which were then incubated for […] at 37 °C in 5% CO2. During day 1, the control plate was fixed with 50% Trichloroacetic acid (TCA), as intended to be the baseline plate used for the normalization of the data. 72 h post‐treatment, the cells were fixed with TCA, and placed at 4 °C for about 2 h. The plates were then washed with distillated water and left to dry under the hood with ventilation. Subsequently, plates were stained with 0.4% SRB for 15 min and washed with 1% acetic acid to remove excess stain. Once dried again, the protein‐bound SRB was dissolved in 10 mM TRIS, and the plates were placed on a shaker for 10 min per plate. Lastly, the absorbance was measured at 492 nm with a spectrophotometer (Synergy HT, BioTek). The absorbance data obtained were normalized to the day 1 control, and the percentage of cell growth in relation to the control was calculated using the following formula. (1) %Cell growth=Mean OD treatment−Mean OD day0/Mean OD control−Mean OD day0×100
(§3) The percentage of proliferation and their respective standard deviations were used to perform statistical analysis in GraphPad Prism software v 10 (GraphPad Software, San Diego, CA). Data were normalized to the day 0 control and to their own untreated 72 h control. These were transformed into logarithmic data, and log(inhibitor) versus response analysis was performed for obtaining the IC50 values per cell lines. Each experiment was conducted in triplicates.
(The SRB assay estimates cell density from bound dye.)

Assay [1] concerns PATU‐T. The experiment in a line: SRB chemosensitivity assay, PATU‐T cells. Particulars: read-out: IC50 PATU‐T. Type of assay: cell-based. As to the method:
as §1, §2, §3

A further assay has as its system SUIT 2.28. As to the kind of experiment: SRB chemosensitivity assay, SUIT 2.28 cells. It is filed as cell-based. The settings on record: read-out: IC50 SUIT 2.28. As to the method:
as §1, §2, §3

In assay [2] the test system is PATU‐T. The experiment in a line: Wound healing assay, PATU‐T. It is filed as cell-based. Particulars: 1 × IC50 and 4 × IC50, 4 to 24 h. As to the method: The wound healing assay was used to test the migratory ability of the selected cells post‐treatment. Cells (5 × 10^4 /well) were seeded on 96‐well. After 24 h, cells reached the optimal 100% confluency, and an artificial wound was created with a 96‐well Pintool Scratcher. The cells were immediately washed with complete medium, in order to remove cell debris after the scratch, and images of the wells were captured at time 0 h, right before the addition of the treatment. Each drug (1b and 1g) was previously diluted in the respective medium at two different concentrations: 1 × IC50 and 4 × IC50 (according to the cell specific IC50 value) and were then added to the cells. Images were then taken at timepoints 4, 8, 20, and 24 h using the Leica microscope with a JAI TMC‐137 camera to assess wound closure. The images were analyzed using the Universal Grab 6.3 software (DCILabs), and the obtained data were used to determine the percentage of migration of the cells, using the following formula. (2) % Migration=Mean width of the wound atT=0−Mean width of the wound atT=X/Mean width of the wound atT=0×100

Assay [3] deals with CDK7. The settings on record: selective inhibition of CDK7, quoted in introduction; cited from earlier work.
For the next assay, the system named is PDAC cell lines. As to the kind of experiment: SRB chemosensitivity assay, ranges over several PDAC cell lines. Type of assay: cell-based. The settings on record: range across the different cell lines. Here is the method: as §1, with “Cells were then plated on 96‐ or 6‐well plates depending on the planned experiment.” left out
The Sulforhodamine B (SRB) chemosensitivity assay was used to measure cytotoxicity and cell proliferation post drug treatment. […] At day 1, cells were attached and ready to be treated. […] Lastly, the absorbance was measured at 492 nm with a spectrophotometer (Synergy HT, BioTek). The absorbance data obtained were normalized to the day 1 control, and the percentage of cell growth in relation to the control was calculated using the following formula. […]

The target of assay [4] is T1, phosphorylated CDK7 (p‐CDK7) (Homo sapiens, UniProt P50613). The experiment in a line: Phospho‐CDK7 (Thr170) cell‐based ELISA, SUIT 2.28. Further details: two PDAC preclinical models (SUIT 2.28 and PDAC3); endogenous in cells; host or cells: SUIT 2.28. The settings on record: SUIT 2.28, 4 × IC50, ELISA. As to the method:
(§4) To detect CDK7 and phospho‐CDK7 levels at Thr170 residue after treatment, an enzyme‐linked immunosorbent assay (Biomatik, Phospho‐CDK7 (Thr170) Colorimetric Cell‐Based ELISA Kit, Cat# EKA51274) was performed according to the manufacturer's protocols. […] The absorbance was read at 450 nm using a microplate reader.
(In an ELISA, binding on a coated surface is turned into a signal by an enzyme label.)

The subject of another assay is PSC. As to the kind of experiment: SRB chemosensitivity assay, pancreatic stellate cells (PSC). Particulars: Fibroblast; SRB, nontumorous immortalized pancreatic fibroblasts, average ± SEM, triplicate; read-out: IC50 PSC. It is filed as cell-based. Here is the method: as §1
as §2, with “The plates were then washed with distillated water and left to dry under the hood with ventilation. Subsequently, plates were stained with 0.4% SRB for 15 min and washed with 1% acetic acid to remove excess stain. Once dried again, the protein‐bound SRB was dissolved in 10 mM TRIS, and the plates were placed on a shaker for 10 min per plate.” left out, “(1) %Cell growth=Mean OD treatment−Mean OD day0/Mean OD control−Mean OD day0×100” left out

Assay [5] deals with CDK7 (Homo sapiens, UniProt P50613). The experiment in a line: In vitro CDK7 enzyme inhibition assay (ADP‐Glo). Type of assay: biochemical. Further details: purchased Promega Corporation VA7402. Particulars: ADP‐Glo assay, mean of triplicate experiments; read-out: CDK7 inhibition activity IC50.
Chain of CDK7 (Homo sapiens, UniProt P50613) (P50613 whole entry): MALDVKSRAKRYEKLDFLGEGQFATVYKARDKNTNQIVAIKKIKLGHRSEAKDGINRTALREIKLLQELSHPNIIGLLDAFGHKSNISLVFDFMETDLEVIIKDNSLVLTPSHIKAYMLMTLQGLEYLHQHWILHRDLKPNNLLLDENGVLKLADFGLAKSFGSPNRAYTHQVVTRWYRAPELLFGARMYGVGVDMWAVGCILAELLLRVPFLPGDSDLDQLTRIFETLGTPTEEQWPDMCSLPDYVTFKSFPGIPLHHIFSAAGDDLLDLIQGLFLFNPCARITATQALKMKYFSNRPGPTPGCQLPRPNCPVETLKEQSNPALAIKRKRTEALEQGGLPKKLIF
Chain of CDK7 (Homo sapiens, UniProt P50613) (P51946 whole entry partner): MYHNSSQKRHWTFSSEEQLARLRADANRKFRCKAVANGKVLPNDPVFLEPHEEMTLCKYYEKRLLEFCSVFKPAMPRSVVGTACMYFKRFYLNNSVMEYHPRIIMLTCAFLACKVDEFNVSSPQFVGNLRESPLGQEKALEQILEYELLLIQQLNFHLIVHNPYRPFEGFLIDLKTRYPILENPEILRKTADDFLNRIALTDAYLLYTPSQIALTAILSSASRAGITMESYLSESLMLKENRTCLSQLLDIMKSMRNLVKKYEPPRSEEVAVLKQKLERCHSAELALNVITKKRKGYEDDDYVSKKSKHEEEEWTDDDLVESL
Chain of CDK7 (Homo sapiens, UniProt P50613) (P51948 whole entry partner): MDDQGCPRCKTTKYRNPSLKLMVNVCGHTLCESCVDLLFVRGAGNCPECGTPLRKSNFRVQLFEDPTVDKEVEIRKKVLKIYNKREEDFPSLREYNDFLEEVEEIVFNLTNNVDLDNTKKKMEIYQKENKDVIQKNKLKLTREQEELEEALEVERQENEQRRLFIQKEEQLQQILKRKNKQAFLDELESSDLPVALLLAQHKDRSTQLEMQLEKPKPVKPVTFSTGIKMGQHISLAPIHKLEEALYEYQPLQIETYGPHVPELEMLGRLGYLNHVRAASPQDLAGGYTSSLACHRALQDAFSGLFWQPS
Experimental: The CDK7 enzyme inhibition assay was conducted using the ADP‐Glo Kinase Assay (VA7402, Promega Corporation, Madison, WI, USA) according to the manufacturer's instructions. In this assay, CDK7 catalyzes the conversion of ATP to ADP. The reaction was terminated by adding the ADP‐Glo reagent, which depletes residual ATP. Subsequently, the kinase detection reagent was introduced to convert ADP back into ATP, which was then measured via a luciferase reaction, producing luminescence. The assay was carried out at room temperature, using DMSO as the solvent for the tested compounds. Each compound was tested at eight different concentrations. […] Luminescence was recorded using a BioTek plate reader (BioTek Instruments Inc.), as previously described.^[ [39] ^] The percentage of enzyme inhibition was determined for each compound at different concentrations, and mean IC50 values of triplicate experiments were calculated using GraphPad Prism.
In assay [6] the target is T1, phosphorylated CDK7 (p‐CDK7). As to the kind of experiment: Phospho‐CDK7 (Thr170) cell‐based ELISA, PDAC3. Further details: endogenous in cells; host or cells: PDAC3 primary cells. The settings on record: PDAC3, 4 × IC50, ELISA. As to the method:
as §4

Another assay deals with PDAC3. As to the kind of experiment: SRB chemosensitivity assay, primary PDAC3 cells. Particulars: PDAC-3, SRB, primary cell line, average ± SEM, triplicate; read-out: IC50 PDAC3. It is filed as cell-based. As to the method: as §1, §2, §3
For a further assay, the system named is PATU‐T GR. As to the kind of experiment: SRB chemosensitivity assay, gemcitabine resistant PATU‐T GR cells. It is filed as cell-based. The settings on record: SRB, gemcitabine resistant PATU‐T GR, average ± SEM, triplicate; read-out: IC50 PATU‐GR. As to the method:
as §1, §2
The percentage of proliferation and their respective standard deviations were used to perform statistical analysis in GraphPad Prism software v 10 (GraphPad Software, San Diego, CA). Data were normalized to the day 0 control and to their own untreated 72 h control. […]

Where [7] appears, read: PANC-1, SRB, 72 h of treatment, average ± SEM, triplicate.
Setting [8] is: SRB, 72 h of treatment, average ± SEM, triplicate.

The IC50 is the concentration at which inhibition is half-maximal.

Each structure is given as a SMILES string. Read-outs that look alike come from different tables or passages of the source. Where only a bound is given, the exact number is not on record here.

T1 sequence (P50613 2-346 limits assumed): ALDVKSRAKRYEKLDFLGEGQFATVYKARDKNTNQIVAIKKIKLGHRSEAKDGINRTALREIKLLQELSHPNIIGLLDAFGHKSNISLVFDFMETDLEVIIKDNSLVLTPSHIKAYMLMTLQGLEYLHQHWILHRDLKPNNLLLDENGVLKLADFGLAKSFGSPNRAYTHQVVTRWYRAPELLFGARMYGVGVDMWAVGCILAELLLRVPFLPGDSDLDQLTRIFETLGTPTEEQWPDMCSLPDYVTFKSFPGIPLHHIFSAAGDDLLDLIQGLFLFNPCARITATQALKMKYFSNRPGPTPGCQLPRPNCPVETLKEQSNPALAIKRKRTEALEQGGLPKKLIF
T1 sequence (P51946 whole entry partner): as the sequence (P51946 whole entry partner) above
T1 sequence (P51948 whole entry partner): as the sequence (P51948 whole entry partner) above

For `Nc1ncnc2cc(-c3c[nH]c4ccc(Cl)cc34)nn12` [Compound 1c, 7‐(5‐Chloro‐1H‐indol‐3‐yl)pyrazolo[1,5‐a][1,3,5]triazin‐4‐amine], the results for the IC50 with PANC‐1 (setting [7]), with PATU‐T [1] (setting [8]) and with SUIT 2.28 (setting [8]) were 8700 ± 1500 nM, 1900 ± 600 nM and 400 ± 100 nM, respectively.
For `Nc1ncnc2cc(-c3c[nH]c4ccc(F)cc34)nn12` [Compound 1d, 7‐(5‐Fluoro‐1H‐indol‐3‐yl)pyrazolo[1,5‐a][1,3,5]triazin‐4‐amine] the same measures were 9600 ± 800 nM, 3500 ± 700 nM and 600 ± 100 nM.
As for `COc1ccc2[nH]cc(-c3cc4ncnc(N)n4n3)c2c1` [Compound 1e, 7‐(5‐Methoxy‐1H‐indol‐3‐yl)pyrazolo[1,5‐a][1,3,5]triazin‐4‐amine], the 50% inhibitory concentration (IC50) in the assay with PANC‐1 (setting [7]) came out at 8800 ± 1200 nM; with PATU‐T [1] (setting [8]), 4700 ± 900 nM; with SUIT 2.28 (setting [8]), 500 ± 100 nM. In addition, the “inhibition of cell migration” value in the assay on PATU‐T [2] was “greatest inhibitory effect”.
Regarding `Cn1cc(-c2cc3ncnc(N)n3n2)c2cc(Cl)ccc21` [Compound 1h, 7‐(5‐Chloro‐1‐methyl‐1H‐indol‐3‐yl)pyrazolo[1,5‐a][1,3,5]triazin‐4‐amine], the half-maximal inhibitory concentration (IC50) in the assay with PANC‐1 (PANC-1, 72 h) amounted to 3100 ± 700 nM; in the assay on PATU‐T [1] (72 h), 2000 ± 300 nM; in the assay on SUIT 2.28 (72 h) it was 1600 ± 300 nM.
For `Cn1cc(-c2cc3ncnc(N)n3n2)c2cc(F)ccc21` [Compound 1i, 7‐(5‐Fluoro‐1‐methyl‐1H‐indol‐3‐yl)pyrazolo[1,5‐a][1,3,5]triazin‐4‐amine] the same measures were 2200 ± 400 nM, 5500 ± 1100 nM and 500 ± 100 nM.
The like results for `COc1ccc2c(c1)c(-c1cc3ncnc(N)n3n1)cn2C` [Compound 1j, 7‐(5‐Methoxy‐1‐methyl‐1H‐indol‐3‐yl)pyrazolo[1,5‐a][1,3,5]triazin‐4‐amine] were, in that order, 2400 ± 500 nM, 4700 ± 800 nM and 500 ± 100 nM.
Turning to `CC(C)c1ccccc1CNc1nc(OC2CCN(C)CC2)nc2c(C(C)C)cnn12` [LDC3140], the IC50 with CDK7 [3] is less than 5 nM.
As for `CC(C)c1cnn2c(NCc3ccccc3-n3cccn3)nc(OC3CCCNC3)nc12` (stereo not shown) [LDC4297, reference compound], the IC50 is 20 ± 10 nM in the assay on PANC‐1 (setting [7]); 20 to 400 nM with PDAC cell lines; 110 ± 20 nM in the assay on PSC; 7.5 nM on CDK7 [5]; 30 ± 10 nM in the assay on PATU‐T [1] (setting [8]); 30 ± 10 nM with SUIT 2.28 (setting [8]). In addition, the IC50 was less than 5 nM in the assay with CDK7 [3], 100 ± 20 nM in the assay on PDAC3 and 450 ± 90 nM in the assay with PATU‐T GR. For the same compound, the “p‐CDK7 expression vs untreated” value in [4] and in assay [6] was “significant decrease in p‐CDK7 levels” in each case.
